In patent publication US5574043A, “Certain [1,2,5-thiadiazol-4-yl]-1-azabicyclo [3.2.1]octane derivatives and their pharmaceutical uses” (Novo Nordisk A/S, priority 1995, dated 1996):
Structures can show the parent of a compound that is named as a salt.

Target: muscarinic acetylcholine receptors
Assay: Inhibition of specific binding of 3H-Oxotremorine-M (OXO BINDING) in vitro, rat cortex
Design: species or system male Wistar rats
Conditions: rat cortex homogenate, 3H-Oxotremorine 1.0 nM, 30 min at 25° C., pH 7.4
Method in brief: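 Washed male Wistar rat cortex membranes in 20 mM Hepes pH 7.4 incubated 30 min at 25° C with 1.0 nM ³H-Oxotremorine-M (final) and test compound; nonspecific binding with 1 μg/ml arecoline. Filtration and scintillation counting; IC50 (ng/ml) for specific binding calculated assuming mass-action kinetics.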

Point of comparison: `c1ccc2sc(SCCCCSc3nsnc3C3CN4CCC3CC4)nc2c1` (stereo not shown) [Compound 108, 3-(3-(4-(2-Benzothiazolyl)thio)butylthio-1,2,5-thiadiazol-4-yl)-1-azabicyclo[2.2.2]octane oxalate], “Inhibition in vitro OXO BINDING IC50” value 16 ng/mL. Against it:
- CCOc1nsnc1C1=C(Cl)CC2CCC1N2.O=C(O)C(=O)O (stereo not shown) [Compound 43, 3-Chloro-2-(3-ethoxy-1,2,5-thiadiazol-4-yl)-8-azabicyclo[3.2.1]oct-2-ene oxalate] — 6.9-fold lower, 2.33 ng/mL
- O=C(O)/C=C/C(=O)O.c1ccc(CCCSc2nsnc2C2CN3CCC2CC3)cc1 (stereo not shown) [Compound 44, 3-(3-(3-Phenylpropylthio)-1,2,5-thiadiazol-4-yl)-1-azabicyclo[2.2.2]octane fumarate] — 3.4-fold lower, 4.7 ng/mL
- N#Cc1ccc(CSc2nsnc2C2CN3CCC2CC3)cc1.O=C(O)C(=O)O (stereo not shown) [Compound 45, 3-(3-(4-Cyanobenzylthio)-1,2,5-thiadiazol-4-yl)-1-azabicyclo[2.2.2]octane oxalate] — 10-fold lower, 1.6 ng/mL
- CCCCOc1nsnc1C1CN2CCC1CC2.O=C(O)C(=O)O (stereo not shown) [Compound 46, 3-(3-Butoxy-1,2,5-thiadiazol-4-yl)-1-azabicyclo[2.2.2]octane oxalate] — 29-fold lower, 0.56 ng/mL
- C=CCCCCOc1nsnc1C1CN2CCC1CC2.O=C(O)/C=C/C(=O)O (stereo not shown) [Compound 48, 3-(3-(5-Hexenyloxy)-1,2,5-thiadiazol-4-yl)-1-azabicyclo[2.2.2]octane fumarate] — 37-fold lower, 0.43 ng/mL
- CCC=CCCOc1nsnc1C1CN2CCC1CC2.O=C(O)/C=C/C(=O)O (stereo not shown) [Compound 49, 3-(3-(3-Hexenyloxy)-1,2,5-thiadiazol-4-yl)-1-azabicyclo[2.2.2]octane fumarate] — 48-fold lower, 0.33 ng/mL
- CCCCCOc1nsnc1C1CN2CCC1CC2.O=C(O)C(=O)O (stereo not shown) [Compound 50, 3-(3-Pentyloxy-1,2,5-thiadiazol-4-yl)-1-azabicyclo[2.2.2]octane oxalate] — 16-fold lower, 1.0 ng/mL
- CC(C)CCOc1nsnc1C1CN2CCC1CC2.O=C(O)C(=O)O (stereo not shown) [Compound 51, 3-(3-Isopentyloxy-1,2,5-thiadiazol-4-yl)-1-azabicyclo[2.2.2]octane oxalate] — 18-fold lower, 0.89 ng/mL
- CCSc1nsnc1C1CN2CCC1CC2.O=C(O)C(=O)O (stereo not shown) [Compound 52, 3-(3-Ethylthio-1,2,5-thiadiazol-4-yl)-1-azabicyclo[2.2.2]octane oxalate] — 26-fold lower, 0.61 ng/mL
- CCCSc1nsnc1C1CN2CCC1CC2.O=C(O)C(=O)O (stereo not shown) [Compound 53, 3-(3-Propylthio-1,2,5-thiadiazol-4-yl)-1-azabicyclo[2.2.2]octane oxalate] — 53-fold lower, 0.3 ng/mL
- CCCCCCCSc1nsnc1C1CN2CCC1CC2.O=C(O)/C=C/C(=O)O (stereo not shown) [Compound 54, 3-(3-Heptylthio-1,2,5-thiadiazol-4-yl)-1-azabicyclo[2.2.2]octane fumarate] — 5.2-fold lower, 3.1 ng/mL
- CCCOc1nsnc1C1=C(Cl)C2CCCN(C1)C2 (stereo not shown) [Compound 62, 4-Chloro-3-(3-propyloxy-1,2,5-thiadiazol-4-yl)-1-azabicyclo[3.3.1]non-3-eneoxalate] — 8.4-fold lower, 1.9 ng/mL
- CCCCCOc1nsnc1C1=C(Cl)C2CCCN(C1)C2 (stereo not shown) [Compound 63, 4-Chloro-3-(3-pentyloxy-1,2,5-thiadiazol-4-yl)-1-azabicyclo[3.3.1]non-3-eneoxalate] — 2-fold lower, 8.2 ng/mL
- COc1nsnc1C1=C(Cl)C2CCCN(C1)C2.O=C(O)C(=O)O (stereo not shown) [Compound 64, 4-Chloro-3-(3-methoxy-1,2,5-thiadiazol-4-yl)-1-azabicyclo[3.3.1]non-3-ene oxalate] — 2-fold lower, 8.2 ng/mL
- ClC1=C(c2cnsn2)CN2CCCC1C2.O=C(O)C(=O)O (stereo not shown) [Compound 65, 4-Chloro-3-(1,2,5-thiadiazol-4-yl)-1-azabicyclo[3.3.1]non-3-ene oxalate] — 1.7-fold lower, 9.6 ng/mL
- Clc1nsnc1C12CCCN(CC1)C2.O=C(O)C(=O)O (stereo not shown) [Compound 67, 5-(3-Chloro-1,2,5-thiadiazol-4-yl)-1-azabicyclo[3.2.1]octane oxalate] — 37-fold lower, 0.43 ng/mL
- CCCCCCSc1nsnc1C12CCCN(CC1)C2.O=C(O)C(=O)O (stereo not shown) [Compound 68, 5-(3-Hexylthio-1,2,5-thiadiazol-4-yl)-1-azabicyclo[3.2.1]octane oxalate] — 23-fold lower, 0.69 ng/mL
- CCCCOc1nsnc1C1=C(Cl)C2CCCN(C1)C2.O=C(O)C(=O)O (stereo not shown) [Compound 93, 4-Chloro-3-(3-butoxy-1,2,5-thiadiazol-4-yl)-1-azabicyclo[3.3.1]non-3-ene oxalate] — 1.8-fold lower, 9.0 ng/mL
- CCCCCCOc1nsnc1C1=C(Cl)C2CCCN(C1)C2.Cl (stereo not shown) [Compound 94, 4-Chloro-3-(3-hexyloxy-1,2,5-thiadiazol-4-yl)-1-azabicyclo[3.3.1]non-3-ene hydrochloride] — within 1.5-fold, 12 ng/mL
- CCCCOc1nsnc1C1=CC2CCCN(C1)C2.O=C(O)C(=O)O (stereo not shown) [Compound 95, 3-(3-Butoxy-1,2,5-thiadiazol-4-yl)-1-azabicyclo[3.3.1]non-3-ene oxalate] — 9.4-fold lower, 1.7 ng/mL
- COc1nsnc1C1=CC2CCCN(C1)C2.O=C(O)C(=O)O (stereo not shown) [Compound 96, 3-(3-Methoxy-1,2,5-thiadiazol-4-yl)-1-azabicyclo[3.3.1]non-3-ene oxalate] — 53-fold lower, 0.3 ng/mL
- CCCCCCOc1nsnc1C1=CC2CCCN(C1)C2.O=C(O)C(=O)O (stereo not shown) [Compound 98, 3-(3-Hexyloxy-1,2,5-thiadiazol-4-yl)-1-azabicyclo[3.3.1]non-3-ene oxalate] — 16-fold lower, 1.0 ng/mL
- CCC(C)Sc1nsnc1C1CN2CCC1CC2.O=C(O)/C=C/C(=O)O (stereo not shown) [Compound 100, 3-(3-(1-Methylpropylthio)-1,2,5-thiadiazol-4-yl)-1-azabicyclo[2.2.2]octane fumarate] — 20-fold lower, 0.82 ng/mL
- CC(C)CSc1nsnc1C1CN2CCC1CC2.O=C(O)/C=C/C(=O)O (stereo not shown) [Compound 101, 3-(3-Isobutylthio-1,2,5-thiadiazol-4-yl)-1-azabicyclo[2.2.2]octane fumarate] — 21-fold lower, 0.75 ng/mL
- O=C(O)/C=C/C(=O)O.c1ccc(OCCSc2nsnc2C2CN3CCC2CC3)cc1 (stereo not shown) [Compound 102, 3-(3-(2-Phenoxyethylthio)-1,2,5-thiadiazol-4-yl)-1-azabicyclo[2.2.2]octane fumarate] — 11-fold lower, 1.52 ng/mL
- N#CCSc1nsnc1C1CN2CCC1CC2.O=C(O)C(=O)O (stereo not shown) [Compound 103, 3-(3-Cyanomethylthio-1,2,5-thiadiazol-4-yl)-1-azabicyclo[2.2.2]octane oxalate] — 17-fold lower, 0.92 ng/mL
- c1csc(CCCSc2nsnc2C2CN3CCC2CC3)c1 (stereo not shown) [Compound 104, 3-(3-(3-(2-Thienyl)propylthio)-1,2,5-thiadiazol-4-yl)-1-azabicyclo[2.2.2]fumarate] — 19-fold lower, 0.85 ng/mL
- Cn1nnnc1SCCCCSc1nsnc1C1CN2CCC1CC2 (stereo not shown) [Compound 106, oxalate] — 18-fold lower, 0.9 ng/mL
- Cc1nnc(SCCCCSc2nsnc2C2CN3CCC2CC3)s1 (stereo not shown) [Compound 107, oxalate] — 53-fold lower, 0.3 ng/mL
- CCc1ccc(COc2nsnc2C2CN3CCC2CC3)cc1.O=C(O)C(=O)O (stereo not shown) [Compound 109, 3-(3-(4-Ethylbenzyloxy)-1,2,5-thiadiazol-4-yl)-1-azabicyclo[2.2.2]octane oxalate] — 4-fold lower, 4.0 ng/mL
- O=C(O)/C=C/C(=O)O.c1csc(CCCOc2nsnc2C2CN3CCC2CC3)c1 (stereo not shown) [Compound 110, 3-(3-(3-(2-Thienyl)propoxy)-1,2,5-thiadiazol-4-yl)-1-azabicyclo[2.2.2]octane fumarate] — 15-fold lower, 1.1 ng/mL
- CSc1nsnc1C1CN2CCC1CC2.O=C(O)C(=O)O (stereo not shown) [Compound 131, 3-(3-Methylthio-1,2,5-thiadiazol-4-yl)-1-azabicyclo[2.2.2]octane oxalate] — 17-fold lower, 0.96 ng/mL
- O=C(O)/C=C/C(=O)O.c1nsnc1C1CN2CCC1CC2 (stereo not shown) [Compound 132, 3-(1,2,5-Thiadiazol-3-yl)-1-azabicyclo[2.2.2]octane fumarate] — 17-fold lower, 0.96 ng/mL

For `ClC1=C(c2nsnc2Cl)C2CCC(C1)N2.O=C(O)C(=O)O` (stereo not shown) [Compound 47, 3-Chloro-2-(3-chloro-1,2,5-thiadiazol-4-yl)-8-azabicyclo[3.2.1]oct-2-ene oxalate], the “Inhibition in vitro OXO BINDING IC50” value was > 300 ng/mL.

Tested on: central and peripheral muscarinic effects
Assay: not given
Conditions: cited from earlier work

In the case of `COC(=O)C1=CCCN(C)C1` [Arecoline, methyl 1-methyl-1,2,5,6-tetrahydropyridine-3carboxylate], the “separation between central and peripheral muscarinic effects” value is listed as “small separation”.

Tested on: not given
Assay: not given
Conditions: in vivo; cited from earlier work

For `COC(=O)C1=CCCN(C)C1` [Arecoline, methyl 1-methyl-1,2,5,6-tetrahydropyridine-3carboxylate], the biological half life is given as “very short”.
